Measurements taken from US8420630B2 (Boehringer Ingelheim Pharma GmbH & Co. KG, priority 2001, dated 2013).

Target: T1, CDK1/cyclinB1 (Homo sapiens, UniProt P06493)
T1 construct: made in house; host or cells: High Five insect cells (Trichoplusia ni), baculovirus coinfection
Experiment: Cyclin B1-CDK1 kinase inhibition test
Assay type: biochemical
Conditions: CDK1 tests (Example 13); recombinant cyclin B1/CDK1, substrate histone H1; read-out: CDK1/cyclinB1 IC50 value
Procedure, shortened: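 Baculovirus-expressed CDK1/cyclin B1 phosphorylated histone H1 with ATP mix containing 0.045 mM ATP plus ^33P-ATP for 30 min at 30 °C. Protein was precipitated with TCA and filter-bound radioactivity read by scintillation counting. Olomoucin at 30 and 300 μM final served as internal control.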

T1 sequence (P06493 whole entry): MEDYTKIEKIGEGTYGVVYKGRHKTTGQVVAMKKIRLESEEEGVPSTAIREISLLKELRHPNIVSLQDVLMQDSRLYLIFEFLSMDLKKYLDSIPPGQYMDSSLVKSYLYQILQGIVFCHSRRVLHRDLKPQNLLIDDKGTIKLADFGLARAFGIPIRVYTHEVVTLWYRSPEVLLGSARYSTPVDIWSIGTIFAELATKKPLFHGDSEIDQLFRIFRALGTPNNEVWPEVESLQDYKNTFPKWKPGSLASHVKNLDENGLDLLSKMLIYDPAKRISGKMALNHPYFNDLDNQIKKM
T1 sequence (P14635 whole entry partner): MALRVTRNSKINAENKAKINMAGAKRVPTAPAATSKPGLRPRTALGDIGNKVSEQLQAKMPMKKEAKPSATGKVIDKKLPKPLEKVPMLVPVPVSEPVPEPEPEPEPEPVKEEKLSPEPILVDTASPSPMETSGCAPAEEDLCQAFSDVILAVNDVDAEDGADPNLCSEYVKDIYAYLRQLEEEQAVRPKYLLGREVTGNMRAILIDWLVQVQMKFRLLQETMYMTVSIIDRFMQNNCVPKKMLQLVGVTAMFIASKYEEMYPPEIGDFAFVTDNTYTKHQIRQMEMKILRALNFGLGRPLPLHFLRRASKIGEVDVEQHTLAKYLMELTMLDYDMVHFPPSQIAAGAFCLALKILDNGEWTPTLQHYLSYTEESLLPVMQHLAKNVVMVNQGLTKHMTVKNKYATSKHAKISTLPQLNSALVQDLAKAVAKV

Structure (SMILES)	IC50 [nM]
CC(C)C(=O)NCCCNc1nc(Nc2ccc3cnn(C)c3c2)ncc1C(F)(F)F [Example 7(002), N-{3-[2-(1-methyl-1H-indazol-6-ylamino)-5-trifluoromethyl-pyrimidin-4-ylamino]-propyl}-isobutyramide]	< 100
CCC(=O)NCCCNc1nc(Nc2ccc3cnn(C)c3c2)ncc1C(F)(F)F [Example 7(006), N-{3-[2-(1-methyl-1H-indazol-6-ylamino)-5-trifluoromethyl-pyrimidin-4-ylamino]-propyl}-propionamide]	< 100
CC(=O)NCCCNc1nc(Nc2ccc(Cl)c(Cl)c2)ncc1C(F)(F)F [Example 7(010), N-(3-[2-(3,4-dichloro-phenylamino)-5-trifluoromethyl-pyrimidin-4-ylamino]-propyl)-acetamide]	< 100
Cn1ncc2ccc(Nc3ncc(C(F)(F)F)c(NCCCNS(=O)(=O)c4ccc(F)cc4)n3)cc21 [Example 7(012), 4-fluoro-N-{3-[2-(1-methyl-1H-indazol-6-ylamino)-5-trifluoromethyl-pyrimidin-4-ylamino]-propyl}-benzensulphonamide]	< 100
COCC(=O)NCCCNc1nc(Nc2ccc3cnn(C)c3c2)ncc1C(F)(F)F [Example 7(013), 2-methoxy-N-{3-[2-(1-methyl-1H-indazol-6-ylamino)-5-trifluoromethyl-pyrimidin-4-ylamino]-propyl}-acetamide]	< 100
CC(C)CC(=O)NCCCNc1nc(Nc2ccc3cnn(C)c3c2)ncc1C(F)(F)F [Example 7(015), 3-methyl-N-{3-[2-(1-methyl-1H-indazol-6-ylamino)-5-trifluoromethyl-pyrimidin-4-ylamino]-propyl}-butyramide]	< 100
Cn1ncc2ccc(Nc3ncc(C(F)(F)F)c(NCCCNC(=O)Cc4ccccc4)n3)cc21 [Example 7(021), N-{3-[2-(1-methyl-1H-indazol-6-ylamino)-5-trifluoromethyl-pyrimidin-4-ylamino]-propyl}-2-phenyl-acetamide]	< 100
COC(=O)NCCCNc1nc(Nc2ccc3cnn(C)c3c2)ncc1C(F)(F)F [Example 7(022)]	< 100
CC(C)COC(=O)NCCCNc1nc(Nc2ccc3cnn(C)c3c2)ncc1C(F)(F)F [Example 7(024)]	< 100
CC(=O)NCCCNc1nc(Nc2ccc(C(N)=O)cc2)ncc1C(F)(F)F [Example 7(027), 4-[4-(3-acetylamino-propylamino)-5-trifluoromethyl-pyrimidin-2-ylamino]-benzamide]	< 100
COCC(=O)NCCCNc1nc(Nc2ccc(C(N)=O)cc2)ncc1C(F)(F)F [Example 7(028), 4-[4-(3-(2-methoxy-acetamino)-propylamino)-5-trifluoromethyl-pyrimidin-2-ylamino]-benzamide]	< 100

Next, values leading:

IC50 [nM]	Structure (SMILES)
< 100	CN(C)CC(=O)NCCCNc1nc(Nc2ccc(C(N)=O)cc2)ncc1C(F)(F)F [Example 7(029), 4-(4-[3-(2-dimethylamino-acetylamino)-propylamino]-5-trifluoromethyl-pyrimidin-2-ylamino)-benzamide]
< 100	CCN(CC)C(=O)NCCCNc1nc(Nc2ccc3cnn(C)c3c2)ncc1C(F)(F)F [Example 7(032), 1,1-diethyl-3-{3-[2-(1-methyl-1H-indazol-6-ylamino)-5-trifluoromethyl-pyrimidin-4-ylamino]-propyl}-urea]
< 100	CN(C)C(=O)NCCCNc1nc(Nc2ccc3cnn(C)c3c2)ncc1C(F)(F)F [Example 7(035), 1,1-dimethyl-3-{3-[2-(1-methyl-1H-indazol-6-ylamino)-5-trifluoromethyl-pyrimidin-4-ylamino]-propyl}-urea]
< 100	CC(C)NC(=O)NCCCNc1nc(Nc2ccc3cnn(C)c3c2)ncc1C(F)(F)F [Example 7(036), 1-isopropyl-3-{3-[2-(1-methyl-1H-indazol-6-ylamino)-5-trifluoromethyl-pyrimidin-4-ylamino]-propyl}-urea]
< 100	CNC(=O)c1ccc(Nc2ncc(C(F)(F)F)c(NCCNC(C)=O)n2)cc1Cl [Example 8(003), 4-[4-(2-acetylamino-ethylamino)-5-trifluoromethyl-pyrimidin-2-ylamino]-2-chloro-N-methyl-benzamide]
< 100	CC(=O)NCCNc1nc(Nc2ccc(C(=O)N(C)C)c(Cl)c2)ncc1C(F)(F)F [Example 8(007), 4-[4-(2-acetylamino-ethylamino)-5-trifluoromethyl-pyrimidin-2-ylamino]-2-chloro-N,N-dimethyl-benzamide]
< 100	CC(=O)NCCNc1nc(Nc2ccc(C(=O)Nc3ccccn3)cc2)ncc1C(F)(F)F [Example 8(024), 4-[4-(2-acetylamino-ethylamino)-5-trifluoromethyl-pyrimidin-2-ylamino]-N-pyridin-2-yl-benzamide]
< 100	CC(=O)NCCNc1nc(Nc2ccc(C(=O)NCc3cc(F)cc(F)c3)cc2)ncc1C(F)(F)F [Example 8(026), 4-[4-(2-acetylamino-ethylamino)-5-trifluoromethyl-pyrimidin-2-ylamino]-N-(3,5-difluorobenzyl)-benzamide]
< 100	CC(=O)NCCNc1nc(Nc2ccc(C(=O)NC(C)c3ccccc3)cc2)ncc1C(F)(F)F (centres unmarked) [Example 8(028), 4-[4-(2-acetylamino-ethylamino)-5-trifluoromethyl-pyrimidin-2-ylamino]-N-(1-phenyl-ethyl)-benzamide]
< 100	CC(=O)NCCNc1nc(Nc2ccc(C(=O)O)cc2)ncc1C(F)(F)F [Example 9(001), 4-[4-(2-acetylamino-ethylamino)-5-trifluoromethyl-pyrimidin-2-ylamino]-benzoic acid]
< 100	CC(=O)NCCNc1nc(Nc2cccc(NC(C)=O)c2)ncc1C(F)(F)F [Example 10(000), N-(2-[2-(3-acetylamino-phenylamino)-5-trifluoromethyl-pyrimidin-4-ylamino]-ethyl)-acetamide]
< 100	CC(=O)NCCNc1nc(Nc2ccc(NS(C)(=O)=O)cc2)ncc1C(F)(F)F [Example 10(014), N-(2-[2-(4-methanesulphonylamido-phenylamino)-5-trifluoromethyl-pyrimidin-4-ylamino]-ethyl)-acetamide]
< 100	CC(=O)NCCNc1nc(Nc2cccc(NS(=O)(=O)c3ccccc3)c2)ncc1C(F)(F)F [Example 10(015), N-(2-[2-(3-phenylsulphonylamido-phenylamino)-5-trifluoromethyl-pyrimidin-4-ylamino]-ethyl)-acetamide]
< 100	CC(=O)NCCNc1nc(Nc2ccc(NS(=O)(=O)c3ccccc3)cc2)ncc1C(F)(F)F [Example 10(016), N-(2-[2-(4-phenylsulphonylamido-phenylamino)-5-trifluoromethyl-pyrimidin-4-ylamino]-ethyl)-acetamide]
< 100	O=C1CCCN1CCCNc1nc(Nc2cccc(CNCC(F)(F)F)c2)ncc1C(F)(F)F [Example 11(034), 1-[3-(2-{3-[(2,2,2-Trifluoro-ethylamino)-methyl]-phenylamino}-5-trifluoromethyl-pyrimidin-4-ylamino)-propyl]-pyrrolidin-2-one]

Test system: not given
Experiment: not given
Conditions: not given

Structure (SMILES)	melting point [°C]
CC(=O)NCCNc1nc(Nc2ccc(C(=O)O)cc2)ncc1[N+](=O)[O-].Cl	171 to 173
CC(=O)NCCNc1nc(Nc2ccc(Cl)c(Cl)c2)ncc1[N+](=O)[O-] [Example 1, 2-(3,4-dichlorophenylamino)-4-(2-acetylamino-ethylamino)-5-nitro-pyrimidine]	200 to 201
CC(=O)NCCNc1nc(Nc2ccc(C(=O)O)cc2)ncc1C(C)C [Example 6, 4-[4-(2-acetylamino-ethylamino)-5-isopropyl-pyrimidin-2-ylamino]-benzoic acid]	275 to 278

Further lines, results first:

melting point [°C]	Structure (SMILES)
160 to 162	O=C(NCCNc1nc(Nc2ccc(Cl)c(Cl)c2)ncc1C(F)(F)F)c1ccccc1 [Example 7, N-(2-[2-(3,4-dichloro-phenylamino)-5-trifluoromethyl-pyrimidin-4-ylamino]-ethyl)-benzamide]
183	CNC(=O)c1ccc(Nc2ncc(C(F)(F)F)c(NCCNC(C)=O)n2)cc1 [Example 8, 4-[4-(2-acetylamino-ethylamino)-5-trifluoromethyl-pyrimidin-2-ylamino]-N-methyl-benzamide]
282	CC(=O)NCCNc1nc(Nc2cccc(C(=O)O)c2)ncc1C(F)(F)F [Example 9, 3-[4-(2-acetylamino-ethylamino)-5-trifluoromethyl-pyrimidin-2-ylamino]-benzoic acid]
222	CC(=O)NCCNc1nc(Nc2cccc(NC(C)=O)c2)ncc1C(F)(F)F [Example 10(000), N-(2-[2-(3-acetylamino-phenylamino)-5-trifluoromethyl-pyrimidin-4-ylamino]-ethyl)-acetamide]
93 to 94	CC(=O)NCCNc1nc(Nc2cccc(CN3CCCCC3)c2)ncc1C(F)(F)F [Example 11, N-{2-[2-(3-piperidin-1-ylmethyl-phenylamino)-5-trifluoromethyl-pyrimidin-4-ylamino]-ethyl}-acetamide]

Test system: cell culture
Experiment: not given
Conditions: Ongkeko et al., 1995, J. Cell Sci., 108, 2897; cited from earlier work

Structure (SMILES)	effect with cytotoxic substances in cell culture
Cn1cnc2c(NCc3ccccc3)nc(NCCO)nc21 [olomoucine]	synergistic effect
